{"source": "paper PMC3487892", "about": "“The Pentameric Channel of COMPcc in Complex with Different Fatty Acids” (PLoS ONE, 2012)", "key": {"COMPcc [1]": {"system": "COMPcc", "design": "method as in PMID 9736606", "settings": "ligand bound in the channel; ref [9]; cited from earlier work"}, "COMPcc [2]": {"target": "T1, COMPcc (Rattus norvegicus, UniProt P35444)", "T1 sequence (P35444 27-72)": "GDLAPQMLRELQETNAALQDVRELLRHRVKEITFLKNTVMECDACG", "experiment": "Displacement of CPA from the CPA-COMPcc complex by fatty acids (fluorescence)", "assay_type": "binding", "settings": "for Kd: calculated from [FA]1/2 of CPA displacement; for Kd / IC50: 1× PBS pH 7.4, 25°C, triplicate; for Interaction Free Energy: from Kd of CPA displacement; for IC50: read-out: [FA]1/2, fatty acid concentration that halves the CPA fluorescence, COMPcc ~0.1 µM, CPA 0.4 µM", "quoted_text": "Steady-state fluorescence spectra were measured on a Fluorolog-3 Horiba Jobin Yvon spectrofluorometer (Edison, NJ). The sample was held in a 10×10 mm quartz cuvette equipped with a continuous stirrer. The data were analyzed with Sigmaplot (Point Richmond, CA) software. The reaction was thermostatically controlled at 25°C by a Jeio-Tech refrigerating bath circulator (Des Plaines, IL). All fluorescence data were collected in 1× PBS buffer, pH 7.4. From the fluorescence enhancement profile of CPA, the fraction of ligand bound protein (f) can be calculated using: [drawing 1] (1) where F0 is the fluorescence of protein sample when no CPA has been added, F is the protein fluorescence at any given CPA concentration and F420 is the protein fluorescence in the presence of 3 µM of CPA. In the case of one ligand binding site, f follows a hyperbolic dependence upon ligand concentration given by: [drawing 2] (2) where B is a constant, Kd is the dissociation constant and [L]free is the concentration of free ligand (in this case CPA).\nThe probe CPA can also be used to characterize the binding of other fatty acids to COMPcc. The addition of fatty acids (FA) to the CPA-COMPcc complex will displace CPA leading to a decrease in fluorescence. […] In the case where there is no FA added the concentrations are [COMPcc] = [COMPcc]0 and [CPA]≈[CPA]0 = 0.4 µM. In this case the concentration of the CPA-COMPcc complex will be equal to: [drawing 5] (5) At [drawing 6] ,the concentration of the COMPcc-CPA complex is equal to one half the initial: [drawing 7] (6) Writing a mass balance for COMPcc we obtain: [drawing 8] (7) When [drawing 9] : [drawing 10] (8) The dissociation constant [drawing 11] can be calculated using the value of [FA]1/2 (the amount of fatty acid that reduces the CPA fluorescence to half its original value."}, "COMPcc [3]": {"target": "T2, COMPcc (Rattus norvegicus, UniProt P35444, G27M/H53Q/R54Q)", "T2 construct": "The coiled-coil domain of rat COMPcc comprising residues 27–72 was prepared as described previously; made in house; host or cells: E. coli", "T2 sequence (P35444 27-72 G27M/H53Q/R54Q)": "T1 sequence (P35444 27-72) with G1M, H27Q, R28Q", "experiment": "Fluorescence enhancement of cis-parinaric acid (CPA) on binding to COMPcc", "experimental": "The coiled-coil domain of rat COMPcc comprising residues 27–72 was prepared as described previously. Purified COMPcc was dialyzed against PBS pH 7.4 and concentrated to 10 mg/mL using an 10 kDa Amicon membrane (Millipore).\nSteady-state fluorescence spectra were measured on a Fluorolog-3 Horiba Jobin Yvon spectrofluorometer (Edison, NJ). The sample was held in a 10×10 mm quartz cuvette equipped with a continuous stirrer. The data were analyzed with Sigmaplot (Point Richmond, CA) software. The reaction was thermostatically controlled at 25°C by a Jeio-Tech refrigerating bath circulator (Des Plaines, IL). All fluorescence data were collected in 1× PBS buffer, pH 7.4. From the fluorescence enhancement profile of CPA, the fraction of ligand bound protein (f) can be calculated using: [drawing 1] (1) where F0 is the fluorescence of protein sample when no CPA has been added, F is the protein fluorescence at any given CPA concentration and F420 is the protein fluorescence in the presence of 3 µM of CPA. In the case of one ligand binding site, f follows a hyperbolic dependence upon ligand concentration given by: [drawing 2] […] Therefore, the binding of CPA to COMPcc is consistent with hyperbolic one site binding and the experimentally determined binding constant was 0.7±0.1 µM."}, "COMPcc [4]": {"system": "COMPcc", "settings": "wild type COMPcc; ref [9], [27]; cited from earlier work"}, "Q54I": {"system": "Q54I", "settings": "Q54I mutant; ref [9], [27]; cited from earlier work"}}, "note": "Changes are numbered by the printed parent chain."}
{"smiles": "CCCCCCCC/C=C/CCCCCCCC(=O)O", "note": "[18:1 trans-9 elaidic acid]", "values": [{"measurement": "increase of midpoint transition temperature (Tm) of unfolding", "setting": "COMPcc [1]", "result": 10, "unit": "°C"}]}
{"smiles": "CCCCCCCCCCCCCC(=O)O", "note": "[C14:0 [Myristic acid], Myristic acid]", "values": [{"measurement": "Kd", "setting": "COMPcc [2]", "result": "800 ± 100", "unit": "nM"}, {"measurement": "Interaction Free Energy", "setting": "COMPcc [2]", "result": "-8.31 ± 0.07", "unit": "kcal/mol"}, {"measurement": "IC50", "setting": "COMPcc [2]", "result": "320 ± 50", "unit": "nM"}]}
{"smiles": "CCCCCCCC/C=C\\CCCCCCCC(=O)O", "note": "[C18:1 [Oleic acid], Oleic acid]", "values": [{"measurement": "Kd", "setting": "COMPcc [2]", "result": "900 ± 100", "unit": "nM"}, {"measurement": "Interaction Free Energy", "setting": "COMPcc [2]", "result": "-8.24 ± 0.06", "unit": "kcal/mol"}, {"measurement": "IC50", "setting": "COMPcc [2]", "result": "390 ± 50", "unit": "nM"}]}
{"smiles": "CCCCCCCCCCCCCCCCCCCC(=O)O", "note": "[C20:0 [Arachidic acid], Arachidic acid]", "values": [{"measurement": "Kd", "setting": "COMPcc [2]", "result": "700 ± 100", "unit": "nM"}, {"measurement": "Interaction Free Energy", "setting": "COMPcc [2]", "result": "-8.42 ± 0.08", "unit": "kcal/mol"}, {"measurement": "IC50", "setting": "COMPcc [2]", "result": "280 ± 40", "unit": "nM"}]}
{"smiles": "c1ccccc1", "note": "[benzene]", "values": [{"measurement": "increase of midpoint transition temperature (Tm) of unfolding", "setting": "COMPcc [1]", "result": 2, "unit": "°C"}]}
{"smiles": "CC\\C=C/C=C/C=C/C=C\\CCCCCCCC(=O)O", "note": "[cis-Parinaric acid]", "values": [{"measurement": "Interaction Free Energy", "setting": "COMPcc [3]; from Kd of direct CPA binding", "result": "-8.42 ± 0.08", "unit": "kcal/mol"}, {"measurement": "Kd", "setting": "COMPcc [3]; hyperbolic one-site binding, excitation 320 nm, emission 420 nm, 1× PBS pH 7.4, 25°C", "result": "700 ± 100", "unit": "nM"}]}
{"smiles": "C1CCCCC1", "note": "[cyclohexane]", "values": [{"measurement": "increase of midpoint transition temperature (Tm) of unfolding", "setting": "COMPcc [1]", "result": 2, "unit": "°C"}]}
{"smiles": "CC1=C(/C=C/C(C)=C/C=C/C(C)=C/CO)C(C)(C)CCC1", "note": "[vitamin A]", "values": [{"measurement": "Interaction Free Energy", "setting": "COMPcc [4]", "result": -8.4, "unit": "kcal/mol"}, {"measurement": "Kd", "setting": "COMPcc [4]", "result": 600, "unit": "nM"}, {"measurement": "Interaction Free Energy", "setting": "Q54I", "result": -8.3, "unit": "kcal/mol"}, {"measurement": "Kd", "setting": "Q54I", "result": 800, "unit": "nM"}]}
{"smiles": "C=C1CC[C@H](O)C/C1=C/C=C1\\CCC[C@]2(C)[C@@H]([C@H](C)CCCC(C)C)CC[C@@H]12", "note": "[vitamin D3]", "values": [{"measurement": "increase of midpoint transition temperature (Tm) of unfolding", "setting": "COMPcc [1]", "result": 8, "unit": "°C"}]}
